Data as given in ChEMBL document CHEMBL1201862, “PubChem BioAssay data set” (2004).
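Assay format: 96-well plates, 48-hour exposure. At the GI50, growth is halved.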 Active and inactive are the calls of the source. Cut-off read from the data, not from the text of the source: active = GI50 up to about 1.1 µM and inactive = higher.

What was measured:
Experiment in all cases: inhibition of tumour cell growth, NCI panel, 48 h
[1] = test system: KM-20L2
[2] = test system: SK-OV-3
[3] = test system: HL-60
[4] = test system: NCI-H522
[5] = test system: SNB-75
[6] = test system: DMS-273
[7] = test system: SN12C
[8] = test system: SK-MEL-2
[9] = test system: HOP-62
[10] = test system: HCT-116
[11] = test system: EKVX
[12] = test system: SF-295
[13] = test system: RXF 631
[14] = test system: HOP-92
[15] = test system: COLO 205
[16] = test system: SNB-78
[17] = test system: NCI-H226
[18] = test system: SNB-19
[19] = test system: OVCAR-4
[20] = test system: KM12
[21] = test system: M14
[22] = test system: UACC-62
[23] = test system: SR
[24] = test system: MOLT-4
[25] = test system: 786-0
[26] = test system: M19-MEL
[27] = test system: A549
[28] = test system: ACHN
[29] = test system: HOP-18
[30] = test system: CAKI-1
[31] = test system: XF498
[32] = test system: UACC-257
[33] = test system: HT-29
[34] = test system: DLD-1
[35] = test system: SW-620
[36] = test system: OVCAR-5
[37] = test system: CCRF-CEM
[38] = test system: OVCAR-8
[39] = test system: SK-MEL-5
[40] = test system: SK-MEL-28
[41] = test system: RPMI-8226
[42] = test system: HCC 2998
[43] = test system: TK-10
[44] = test system: K562
[45] = test system: UO-31
[46] = test system: SF-539
[47] = test system: NCI-H23
[48] = test system: OVCAR-3
[49] = test system: DMS-114
[50] = test system: RXF 393
[51] = test system: U-251
[52] = test system: LOX IMVI
[53] = test system: IGROV-1
[54] = test system: NCI-H460
[55] = test system: SF-268
[56] = test system: LXFL 529
[57] = test system: A498
[58] = test system: Malme-3M
[59] = test system: HCT-15

Measured: GI50

CC1=CC(=O)CCC2(C)C1CC[C@@H]2OC=O (stereo not given in full)
inactive: [1] 82.2 µM | [2] > 100 µM | [3] > 100 µM | [4] > 100 µM | [5] 93.5 µM | [6] > 100 µM | [7] > 100 µM | [8] > 100 µM | [9] 53.6 µM | [10] > 100 µM | [11] > 100 µM | [12] > 100 µM | [13] > 100 µM | [14] > 100 µM | [15] > 100 µM | [16] > 100 µM | [17] > 100 µM | [18] > 100 µM | [19] > 100 µM | [20] > 100 µM | [21] > 100 µM | [22] > 100 µM | [23] > 100 µM | [24] > 100 µM | [25] > 100 µM | [26] > 100 µM | [27] > 100 µM | [28] > 100 µM | [29] > 100 µM | [30] > 100 µM | [31] > 100 µM | [32] > 100 µM | [33] > 100 µM | [34] > 100 µM | [35] > 100 µM | [36] > 100 µM | [37] > 100 µM | [38] > 100 µM | [39] > 100 µM | [40] > 100 µM | [41] > 100 µM | [42] > 100 µM | [43] > 100 µM | [44] > 100 µM | [45] > 100 µM | [46] > 100 µM | [47] > 100 µM | [48] > 100 µM | [49] > 100 µM | [50] > 100 µM | [51] > 100 µM | [52] > 100 µM | [53] > 100 µM | [54] > 100 µM | [55] > 100 µM | [56] > 100 µM

CC(C(=O)c1ccc(Cl)cc1)/C(=N/NC(=O)NN)C(=O)Nc1cccc(C(F)(F)F)c1 (stereo not given)
> 100 µM: [59]
inactive: [1] > 100 µM | [2] > 100 µM | [3] > 100 µM | [5] > 100 µM | [6] > 100 µM | [7] > 100 µM | [8] > 100 µM | [10] > 100 µM | [57] > 100 µM | [11] > 100 µM | [12] > 100 µM | [13] > 100 µM | [15] > 100 µM | [16] > 100 µM | [17] > 100 µM | [18] > 100 µM | [19] > 100 µM | [21] > 100 µM | [22] > 100 µM | [24] > 100 µM | [58] > 100 µM | [25] > 100 µM | [26] > 100 µM | [27] > 100 µM | [28] > 100 µM | [29] 56.5 µM | [30] > 100 µM | [31] > 100 µM | [32] > 100 µM | [33] > 100 µM | [34] > 100 µM | [35] > 100 µM | [36] > 100 µM | [37] > 100 µM | [38] > 100 µM | [39] > 100 µM | [40] > 100 µM | [41] > 100 µM | [42] > 100 µM | [43] > 100 µM | [44] > 100 µM | [45] > 100 µM | [46] > 100 µM | [47] > 100 µM | [48] > 100 µM | [49] > 100 µM | [50] 22.8 µM | [51] > 100 µM | [52] > 100 µM | [53] > 100 µM | [54] > 100 µM | [55] > 100 µM | [56] > 100 µM
